# According to US20020183297A1, “Pharmaceutical composition for the treatment of alopecia” (priority 2001, published 2002):
# How the values were obtained:
# [1] = test system: hair growth on scalp of subjects with baldness / hair loss; assay: compositions tested in humans (topical application to scalp); type: in vivo, human; details: summary statement; animals and humans / applied directly to scalp
# Protocol: The composition is applied to scalp ideally after thoroughly cleansing hair with soap and water to remove as much sebaceous secretions as possible. Sufficient quantity of the composition is applied to balding areas of scalp repeatedly, 1-2 times per day and applications continued for several days or weeks. It may be necessary, as it has been observed, to repeat the application frequently to keep the new follicular growth and to initiate further growth.
# Finally, the compositions were tested in humans. Ten subjects with advanced male pattern baldness used test preparation #1 and #2 (five subjects each) as described above for a period of three weeks. […] Three female subjects with thinning hair used composition #3 and #4 for a period of five weeks daily.
# stem cells = assay: tritiated thymidine labeling of stem cells (murine skin explants; label retaining cells in mice); type: cell-based, mouse
# From the text: The effectiveness of stimulant of stem cells can be readily evaluated using the technique of tritiated thymidine labeling. We studied the effectiveness of the invention on stimulation of stem cell populations by using the technique of tritiated thymidine labeling of stem cells. The effects of compositions described here were studied on explants of murine skin. Explant cultures were serially harvested at daily intervals for the first 4 days of exposure, and composition effects on ^3H-TdR (tritiated thymidine) incorporation assessed in accordance with standard techniques. Because of the slow- cycling nature of stem cells, repeated administration of tritiated thymidine is necessary. After the labeling, the cells are chased for four weeks wherein the stem cells retain the label longer and are thus quantitated comparatively to control.
# In another series of experiments, a cohort of mice was continuously labeled for 2 weeks with ^3H- TdR and then allowed to rest for 4 weeks. Once labeled, cells that cycle slowly retained isotopes for an extended period of time. Twice daily, subcutaneous injections of ^3H-TdR were given to newborn mice over the first seven days of life resulting in the labeling of almost 100% of nuclei in mouse epidermis, hair follicles, sebaceous glands, fibroblasts, and endothelial cells. […]
smiles,measurement,setting,value
CC[C@H](CC[C@@H](C)[C@H]1CC[C@H]2[C@@H]3CC=C4C[C@@H](O)CC[C@]4(C)[C@H]3CC[C@]12C)C(C)C [β-sitosterol],growth of hair,[1],enhance growth of hair
same,activity of stem cells and/or bulge cells responsible for growth of hair,stem cells,significantly enhances
